Earlier results, collected in patent US20050201943A1, “Magnetic resonance imaging using contrast agents bioactivated by enzymatic cleavage” (Epix Medical, Inc.,. a Delaware corporation, priority 2000, published 2005).
Residues, ends and D or L forms follow the SMILES beside them. *: point of attachment. Bz = O=C(c1ccccc1)*

Key:
[1] = target: T1, TAFI (Homo sapiens, UniProt Q96IY4); settings: other TAFI substrate, given for comparison
T1 sequence (Q96IY4 115-423): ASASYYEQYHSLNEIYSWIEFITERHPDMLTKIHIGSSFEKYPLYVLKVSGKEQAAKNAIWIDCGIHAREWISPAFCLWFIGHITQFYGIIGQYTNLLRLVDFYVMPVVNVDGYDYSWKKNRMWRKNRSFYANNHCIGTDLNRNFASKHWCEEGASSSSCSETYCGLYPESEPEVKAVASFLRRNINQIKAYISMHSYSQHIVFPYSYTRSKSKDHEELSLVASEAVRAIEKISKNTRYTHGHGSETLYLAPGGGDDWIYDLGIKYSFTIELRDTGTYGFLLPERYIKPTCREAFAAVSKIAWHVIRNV

[2] = target: human serum albumin (HSA) (Homo sapiens, UniProt P02768); settings: bound to HSA versus unbound in aqueous solution
human serum albumin (HSA), sequence (P02768 25-609): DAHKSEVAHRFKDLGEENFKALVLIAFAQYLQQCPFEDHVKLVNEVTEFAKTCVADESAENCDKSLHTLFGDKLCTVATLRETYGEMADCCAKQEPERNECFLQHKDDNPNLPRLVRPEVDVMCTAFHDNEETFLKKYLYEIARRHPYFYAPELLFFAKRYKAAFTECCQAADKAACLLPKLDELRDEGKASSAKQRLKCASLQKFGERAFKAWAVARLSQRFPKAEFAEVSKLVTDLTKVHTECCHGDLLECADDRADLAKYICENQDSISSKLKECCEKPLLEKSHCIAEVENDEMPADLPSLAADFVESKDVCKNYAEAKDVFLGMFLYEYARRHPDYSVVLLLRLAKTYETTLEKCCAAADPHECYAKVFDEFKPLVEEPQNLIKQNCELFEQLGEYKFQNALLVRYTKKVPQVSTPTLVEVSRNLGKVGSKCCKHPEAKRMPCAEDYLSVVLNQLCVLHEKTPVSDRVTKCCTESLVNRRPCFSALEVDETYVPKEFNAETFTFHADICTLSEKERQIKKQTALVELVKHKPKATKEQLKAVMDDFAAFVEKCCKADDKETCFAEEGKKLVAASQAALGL

Compound | Km [1] | kcat [1] | increase in relaxivity of the protein-bound form compared to the unbound contrast agent [2]
N=C(N)NCCC[C@H](NC(=O)CNC(=O)c1ccccc1)C(=O)O [hippuryl arginine] (Bz-Gly-Arg-OH) | 140 µM | 21 s⁻¹ | 
O=C([O-])CN(CCN(CC(=O)[O-])C[C@H](COP(=O)([O-])OC1CCC(c2ccccc2)(c2ccccc2)CC1)N(CC(=O)[O-])CC(=O)[O-])CC(=O)[O-].[Gd+3].[H+].[H+].[H+] [MS-325] |  |  | seven to eight times
